Assays:
[1] = test system: T. cruzi Arequipa strain amastigotes; test: Screening against intracellular amastigotes in Vero cells, Arequipa strain (Giemsa counting); assay type: cell-based, Trypanosoma cruzi
Experimental: (§1) TINF/CH/1956/Tulahuen, DTU VI [26]—were grown at 28 °C in Gibco® RPMI 1640 Medium supplemented as previously reported, and used for in vitro screening. Trypanocidal activity against amastigotes was tested as previously reported. In brief, bloodstream trypomastigotes (BTs), obtained by cardiac puncture from infected BALB/c mice, were used to infect 1 × 10^4 Vero cells·well^−1 in 24-well plates with rounded coverslips at a multiplicity of infection (MOI) ratio of 10:1. After 24 h of infection, non-internalized trypomastigotes were washed and the infected cells were treated by adding the compounds in serial dilutions from 50 to 0.5 µM in […] for 72 h. BZN and untreated growth controls were also included in triplicate. Later, the number of amastigotes and infected cells were determined in Giemsa stained preparations by analysing 500 host cells randomly distributed in microscopic fields. The trypanocidal activity was expressed as the IC50 using GraphPad Prism 6 software (version 6.07).

[2] = test system: T. cruzi Arequipa strain trypomastigotes; test: Screening against bloodstream trypomastigotes, Arequipa strain (resazurin); assay type: cell-based, Trypanosoma cruzi; settings: Trypanosoma cruzi; trypomastigotes; 24 h + 4 h resazurin; mean of three ± SD
[3] = test system: T. cruzi SN3 strain amastigotes; test: Screening against intracellular amastigotes in Vero cells, SN3 strain (Giemsa counting); assay type: cell-based, Trypanosoma cruzi; settings: Trypanosoma cruzi; amastigotes in Vero cells; 72 h; mean of three ± SD
Experimental: as §1

[4] = test system: T. cruzi Tulahuen strain epimastigotes; test: Screening against extracellular epimastigotes, Tulahuen strain (resazurin); assay type: cell-based, Trypanosoma cruzi; settings: Trypanosoma cruzi, TULAHUEN; epimastigotes; 48 h treatment + 24 h resazurin; mean of three ± SD; read-out: Activity IC50 T. cruzi Tulahuen Strain E
Experimental: Three different T. cruzi […] strains—MHOM/Pe/2011/Arequipa, discrete typing unit (DTU) V [26]; IRHOD/CO/2008/SN3, DTU I [27]; TINF/CH/1956/Tulahuen, DTU VI [26]—were grown at 28 °C in Gibco® RPMI 1640 Medium supplemented as previously reported, and used for in vitro screening.
Trypanocidal activity against epimastigotes was tested as previously reported. In brief, 5 × 10^5 mL^−1 epimastigotes culture medium were treated by adding the compounds in serial dilutions from 100 to 0.2 µM in 96-well plates (200 µL·well^−1) for 48 h. BZN and untreated growth control were also included in triplicate. Later, 20 μL of resazurin sodium salt (Sigma-Aldrich, St. Louis, MO, USA) was added, and the plates were incubated for another 24 h. Finally, the absorbance of the wells was measured at 570/600 nm and related to the control. The trypanocidal activity was expressed as the IC50 (inhibitory concentration 50) value using GraphPad Prism 6 software.

[5] = test system: T. cruzi Tulahuen strain amastigotes; test: Screening against intracellular amastigotes in Vero cells, Tulahuen strain (Giemsa counting); assay type: cell-based, Trypanosoma cruzi; settings: Trypanosoma cruzi, TULAHUEN; amastigotes in Vero cells; 72 h; mean of three ± SD
Experimental: as §1

[6] = test system: T. cruzi Tulahuen strain trypomastigotes; test: Screening against bloodstream trypomastigotes, Tulahuen strain (resazurin); assay type: cell-based, Trypanosoma cruzi; settings: Trypanosoma cruzi, TULAHUEN; trypomastigotes; 24 h + 4 h resazurin; mean of three ± SD
[7] = test system: T. cruzi Arequipa strain; test: Monitoring of acute parasitaemia by counting in infected BALB/c mice; assay type: in vivo, Trypanosoma cruzi; settings: acute infection
Experimental: (§2) All animal work (Scheme 1) and maintenance was performed under RD53/2013 and approved by the Ethics Committee on Animal Experimentation (CEEA) of the University of Granada, Spain. Female BALB/c mice (aged 10–12 weeks and 20–22 g) were used in the subsequent in vivo assays.
(§3) Infection was carried out by intraperitoneal inoculation of 5 × 10^5 BTs of T. cruzi Arequipa strain per mouse in 0.2 mL PBS [26]. The infection was monitored and on the 10th day post-infection (dpi), when BTs were visible in the bloodstream, the infection was confirmed.
(§4) Mice were divided into four groups (n = 3 per group): 0, negative control group (uninfected and untreated mice); I, positive control group (infected and untreated mice); II, BZN group (mice infected and treated with BZN); III, 15 group (mice infected and treated with 15).
(§5) The treatment for mice treated in the acute and chronic CD began when the infection was confirmed (10th dpi) and was stablished that the animals had entered the chronic CD (75th dpi), respectively (Scheme 1). Compound 15 and BZN were orally administered for 5 consecutive days at a dose of 20 mg·Kg^−1·day^−1.
[…]. The fresh blood microscopic examination was performed from the 7th day until the day when parasitaemia was not detected (Scheme 1).

[8] = test system: T. cruzi Arequipa strain; test: Infection reactivation by cyclophosphamide immunosuppression in infected BALB/c mice; assay type: in vivo, Trypanosoma cruzi; settings: oral 20 mg/Kg/day for 5 days, related to control group
[9] = test system: T. cruzi Arequipa strain; test: Nested amastigotes detection by PCR in nine target organs/tissues of infected BALB/c mice; assay type: in vivo, Trypanosoma cruzi; settings: oral 20 mg/Kg/day for 5 days
Experimental: as §3, §4, §5
After CP-induced immunosuppression, the mice were euthanised using CO2 by exsanguination via cardiac puncture, and blood was collected. Then, 9 target organs/tissues were harvested: adipose, bone marrow, brain, oesophagus, heart, lung, muscle, spleen, and stomach. These organs/tissues were perfused with pre-warmed PBS to avoid contamination with BTs, and stored at −80 °C. In addition, spleens were weighed to assess splenomegaly.
DNA extraction of the target organs/tissues was performed using Wizard® Genomic DNA Purification Kit. DNA was subjected to amplification by PCR based on the sequence of the T. cruzi splice leader (SL) intergenic region using two published primers (TC and TC1) that allow the amplification of a 300 base pairs fragment in different biological samples. […]

[10] = Clinical analysis of heart, kidney and liver markers in serum of treated mice; assay type: in vivo, BALB/c mice; settings: n = 3
Experimental: as §3, §4, §5
Blood samples were collected in several dpi (Scheme 1) and processed according the method previously reported to obtain serum. Serum samples were then aliquoted to ELISA test and clinical analysis.
Heart, kidney and liver markers were measured from blood in several dpi (Scheme 1) with Cromakit® as previously reported. Mean and standard deviations were calculated using the levels measured for different populations of sera (n = 15, n = 3), and the confidence interval were also calculated based on a confidence level of 95% (100 × (1 − α) = 100 × (1 − 0.05)).

[11] = test system: epimastigotes of T. cruzi Arequipa strain; test: Mitochondrial membrane potential by flow cytometry (rhodamine 123); assay type: cell-based, Trypanosoma cruzi; settings: compounds at IC25 concentrations, 72 h; KCN 10 mM, 40 min; mean of three ± SD
[12] = assay type: in vivo, BALB/c mice; settings: oral 20 mg/Kg/day for 5 days; acute and chronic infections
Experimental: as §2, §3, §4, §5

[13] = treatment in the acute infection
[14] = treatment in acute phase, 16th dpi (2 days after treatment)
[15] = treatment in acute phase, necropsy day
[16] = treatment in chronic phase, 81th dpi (2 days after treatment)
[17] = treatment in chronic phase, necropsy day

Compound: O=C(Cn1ccnc1[N+](=O)[O-])NCc1ccccc1 [BZN, benznidazole, reference compound]
- number of amastigotes per Vero cell ([1]; 50 μM, 72 h of exposure): practically zero
- IC50 ([1]; Trypanosoma cruzi, amastigotes in Vero cells, 72 h, mean of three ± SD): 8.3 ± 0.7 µM
- IC50 [2]: 12.4 ± 1.1 µM
- IC50 [3]: 16.6 ± 1.4 µM
- IC50 [4]: 19.7 ± 1.7 µM
- IC50 [5]: 10 ± 0.8 µM
- IC50 [6]: 15.1 ± 1.3 µM
- parasitaemia reduction on the day of maximum parasitaemia ([7]; oral 20 mg/Kg/day for 5 days from 10th dpi, vs untreated control): ~ 65%
- parasitaemia undetectable, days before control mice ([7]; oral 20 mg/Kg/day for 5 days, control detectable up to 50 dpi): 3 days
- reactivation of parasitaemia after immunosuppression [8, 13]: 75%
- reactivation of parasitaemia after immunosuppression ([8]; treatment in the chronic infection (from 75th dpi)): 51%
- clearance of nested parasites in target organs/tissues (parasite-free organs/tissues, PCR) [9, 13]: 33%
- clearance of nested parasites in target organs/tissues (parasite-free organs/tissues, PCR) ([9]; treatment in the chronic infection): 56%
- ALP, variation over the range [10, 14]: ++ (20-30% increase/decrease over the range)
- ALT/GPT, variation over the range [10, 14]: ++++ (˃ 40% increase/decrease over the range)
- AST/GOT, variation over the range [10, 14]: ++++ (˃ 40% increase/decrease over the range)
- CK-MB, variation over the range [10, 14]: = (variation ≤ 10%)
- LDH, variation over the range [10, 14]: = (variation ≤ 10%)
- Total bilirubin, variation over the range [10, 14]: ++ (20-30% increase/decrease over the range)
- Urea, variation over the range [10, 14]: --- (30-40% increase/decrease over the range)
- Uric acid, variation over the range [10, 14]: ---- (˃ 40% increase/decrease over the range)
- ALP, variation over the range [10, 15]: = (variation ≤ 10%)
- ALT/GPT, variation over the range [10, 15]: = (variation ≤ 10%)
- AST/GOT, variation over the range [10, 15]: ++++ (˃ 40% increase/decrease over the range)
- CK-MB, variation over the range [10, 15]: = (variation ≤ 10%)
- LDH, variation over the range [10, 15]: = (variation ≤ 10%)
- Total bilirubin, variation over the range [10, 15]: + (10-20% increase/decrease over the range)
- Urea, variation over the range [10, 15]: --- (30-40% increase/decrease over the range)
- Uric acid, variation over the range [10, 15]: = (variation ≤ 10%)
- ALP, variation over the range [10, 16]: ++++ (˃ 40% increase/decrease over the range)
- ALT/GPT, variation over the range [10, 16]: ++ (20-30% increase/decrease over the range)
- AST/GOT, variation over the range [10, 16]: ++ (20-30% increase/decrease over the range)
- CK-MB, variation over the range [10, 16]: -- (20-30% increase/decrease over the range)
- LDH, variation over the range [10, 16]: --- (30-40% increase/decrease over the range)
- Total bilirubin, variation over the range [10, 16]: +++ (30-40% increase/decrease over the range)
- Urea, variation over the range [10, 16]: --- (30-40% increase/decrease over the range)
- Uric acid, variation over the range [10, 16]: ---- (˃ 40% increase/decrease over the range)
- ALP, variation over the range [10, 17]: ++ (20-30% increase/decrease over the range)
- ALT/GPT, variation over the range [10, 17]: = (variation ≤ 10%)
- AST/GOT, variation over the range [10, 17]: + (10-20% increase/decrease over the range)
- CK-MB, variation over the range [10, 17]: = (variation ≤ 10%)
- LDH, variation over the range [10, 17]: -- (20-30% increase/decrease over the range)
- Total bilirubin, variation over the range [10, 17]: ++ (20-30% increase/decrease over the range)
- Urea, variation over the range [10, 17]: --- (30-40% increase/decrease over the range)
- Uric acid, variation over the range [10, 17]: -- (20-30% increase/decrease over the range)
- Inhibition on mitochondrial membrane potential with respect to untreated epimastigotes [11]: 35.4%
- death or body mass loss of treated mice [12]: none of the mice died or lost more than 10% body mass

From PMC9863987, “Identification of Aryl Polyamines Derivatives as Anti-Trypanosoma cruzi Agents Targeting Iron Superoxide Dismutase” (Pharmaceutics, 2022)
